Molecules are shown by their SMILES. A value given as a limit tells only on which side of the number the result lay.

One experiment relates to influenza A/H5N1 virus. The class given is cell-based.
A further experiment relates to influenza A/H7N9 virus. The class given is cell-based.
Another experiment concerns recombinant NA A/H7N9. It counts as biochemical, influenza A virus.

By EC50 is commonly meant the concentration giving half of the maximal effect. As to `O=C1c2c(O)c(=O)ccn2N([C@@H]2c3ccccc3SCc3c2ccc(F)c3F)[C@@H]2COCCN12` [BXA, baloxavir acid], the EC50 in the experiment with influenza A/H5N1 virus and in the experiment on influenza A/H7N9 virus was < 0.03 nM in each case. One may read the IC50 as the point on the concentration scale where inhibition reaches its midpoint. As to `CC(=O)N[C@H]1[C@H]([C@H](O)[C@H](O)CO)OC(C(=O)O)=C[C@@H]1N=C(N)N` [ZAN, zanamivir], the IC50 in the experiment on recombinant NA A/H7N9 is > 100 nM.

The record behind these values is article PMC11964917 (Nature Microbiology, 2025).
